Some test systems named below: SF-539 CNS; SNB-19 CNS; T-47D breast; UACC-257 melanoma; HCT-116 colon; COLO 205 colon; ACHN renal; EKVX NSCLC; KM12 colon; MDA-MB-435.
Holding throughout (assay): DTP human tumour cell line panel, 48 h

For 21 compounds, TGI and GI50 results are on record in PubChem BioAssay (NCI).

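A five-concentration, 48-hour dose response in 96-well plates underlies each endpoint, interpolated linearly between surrounding concentrations. GI50 marks 50% less growth. TGI is the concentration that stops growth completely.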

Take `NNC(=O)CC(=O)Nc1cccc(Cl)c1`: the TGI in the assay on SF-539 CNS, in the assay on SNB-19 CNS, in the assay with T-47D breast, with UACC-257 melanoma, in the assay with HCT-116 colon and in the assay with COLO 205 colon was greater than 100 µM throughout. For the same compound, the concentration for total growth inhibition (TGI) in the assay with ACHN renal, in the assay on EKVX NSCLC, in the assay on KM12 colon and in the assay on MDA-MB-435 was greater than 100 µM each time.
Regarding `Cc1c(C)c(C)c(Cn2[nH]c(=O)n(C)c2=O)c(C)c1C`, the TGI with SF-539 CNS, in the assay on SNB-19 CNS, in the assay on T-47D breast, with UACC-257 melanoma, with HCT-116 colon and with COLO 205 colon was greater than 100 µM in each case. In addition, the TGI in the assay with ACHN renal, in the assay on EKVX NSCLC, with KM12 colon and with MDA-MB-435 was greater than 100 µM in each case.
Take `NC(N)=NS(=O)(=O)c1ccc(N/N=C2/CCOC2=O)cc1`: the TGI with SF-539 CNS, with SNB-19 CNS, with T-47D breast, in the assay on UACC-257 melanoma, with HCT-116 colon and in the assay with COLO 205 colon was greater than 100 µM each time. Further, the TGI with ACHN renal, in the assay with EKVX NSCLC, with KM12 colon and with MDA-MB-435 was greater than 100 µM throughout.
As to `COc1ccc(/C=C/C(=O)/C=C/c2ccc(OC)cc2OC)c(OC)c1`, the TGI in the assay on SF-539 CNS was 36.7 µM; in the assay on SNB-19 CNS it was 82.8 µM; in the assay on T-47D breast, greater than 100 µM; in the assay with UACC-257 melanoma, 39.9 µM; with HCT-116 colon, 21.3 µM; in the assay with COLO 205 colon, 51.9 µM. The TGI was 21.8 µM with ACHN renal, 33.3 µM with EKVX NSCLC, greater than 100 µM with KM12 colon and 8.24 µM in the assay with MDA-MB-435.
Turning to `COc1cc(C)c(/C=C2/N=C(c3ccccc3)OC2=O)c([N+](=O)[O-])c1OC`, the TGI in the assay with SF-539 CNS, in the assay on SNB-19 CNS, in the assay with T-47D breast, in the assay on UACC-257 melanoma, with HCT-116 colon and in the assay with COLO 205 colon was greater than 100 µM each time. In addition, the TGI in the assay with ACHN renal, with EKVX NSCLC, in the assay on KM12 colon and with MDA-MB-435 was greater than 100 µM each time.
As for `CC(=O)c1[nH]c(NC(C)C)c(C(=S)Nc2ccccc2)c1N`, the TGI in the assay on SF-539 CNS is greater than 100 µM; in the assay with SNB-19 CNS, 91.5 µM; with T-47D breast, 82.6 µM; with UACC-257 melanoma, 65.8 µM; with HCT-116 colon it was 64.4 µM; with COLO 205 colon it was greater than 100 µM. In addition, the TGI was greater than 100 µM in the assay on ACHN renal, greater than 100 µM with EKVX NSCLC, greater than 100 µM with KM12 colon and 49 µM with MDA-MB-435.
On to `COC(=O)c1c(C(=O)OC)c2ccccn2c1-c1cc(OC)c(Br)c(=O)o1`, for which the TGI in the assay on SF-539 CNS, in the assay with SNB-19 CNS, in the assay on T-47D breast, with UACC-257 melanoma, in the assay on HCT-116 colon and in the assay on COLO 205 colon was greater than 100 µM in each case. Moreover, the TGI in the assay with ACHN renal, in the assay on EKVX NSCLC, in the assay on KM12 colon and with MDA-MB-435 was greater than 100 µM each time.
For the compound `Cc1cc(Cl)nc2nc(Cl)c(N)cc12`, the TGI in the assay on SF-539 CNS is 30.6 µM; in the assay on SNB-19 CNS, 9.57 µM; with T-47D breast, 15.4 µM; in the assay on UACC-257 melanoma, 3.55 µM; in the assay with HCT-116 colon, 5.92 µM; in the assay on COLO 205 colon it was 4.3 µM. For the same compound, the TGI in the assay with ACHN renal turned out to be 18.4 µM; in the assay on EKVX NSCLC, 10.5 µM; with KM12 colon, 17.8 µM; in the assay on MDA-MB-435, 4.64 µM.
With `N#CC1(C#N)NC(c2ccccc2)C(C#N)(C#N)NC1c1ccccc1` (stereo not given), the TGI in the assay on SF-539 CNS, in the assay on SNB-19 CNS, in the assay on T-47D breast, in the assay with UACC-257 melanoma, with HCT-116 colon and with COLO 205 colon was greater than 100 µM throughout. Besides, the total growth inhibition concentration (TGI) in the assay with ACHN renal, with EKVX NSCLC, in the assay with KM12 colon and with MDA-MB-435 was greater than 100 µM throughout.
Turning to `COc1cc2c(c(OC)c1OC)C(=O)[C@@H]1[C@H]2N1C(=O)NCCCl`, the TGI was greater than 100 µM in the assay with SF-539 CNS; greater than 100 µM in the assay with SNB-19 CNS; greater than 100 µM in the assay with T-47D breast; greater than 100 µM with UACC-257 melanoma; greater than 100 µM with HCT-116 colon; 78.3 µM with COLO 205 colon. Besides, the TGI in the assay with ACHN renal, with EKVX NSCLC, in the assay on KM12 colon and with MDA-MB-435 was greater than 100 µM each time.
Turning to `CC(O)C1(CNc2cc(Cl)nc(N)n2)CCCCC1` (stereo not given), the TGI with SF-539 CNS, in the assay on SNB-19 CNS, with T-47D breast, with UACC-257 melanoma, in the assay with HCT-116 colon and in the assay with COLO 205 colon was greater than 100 µM each time. Besides, the TGI in the assay with ACHN renal, in the assay on EKVX NSCLC, in the assay with KM12 colon and in the assay on MDA-MB-435 was greater than 100 µM in each case.
In the case of `CC(Oc1ccccc1Cl)C(=O)NN1C(=O)CC(=O)N(c2ccccc2)C1=S` (stereo not given), the TGI in the assay on SF-539 CNS, with SNB-19 CNS, in the assay with T-47D breast, in the assay on UACC-257 melanoma, in the assay with HCT-116 colon and in the assay with COLO 205 colon was greater than 100 µM throughout. The TGI in the assay on ACHN renal, in the assay with EKVX NSCLC, in the assay with KM12 colon and in the assay on MDA-MB-435 was greater than 100 µM in each case.
Regarding `O=C(Cc1ccccc1F)NC1=C(Cl)C(=O)c2ccccc2C1=O`, the TGI worked out at 1.93 µM in the assay with SF-539 CNS; 25.2 µM with SNB-19 CNS; 5.8 µM in the assay with T-47D breast; 4.32 µM with UACC-257 melanoma; 5.12 µM in the assay with HCT-116 colon; 6.9 µM in the assay on COLO 205 colon. In addition, the TGI in the assay with ACHN renal stood at 2.02 µM; with EKVX NSCLC, 18 µM; in the assay on KM12 colon, 4.11 µM; with MDA-MB-435, 10.4 µM.
On to `CC1(C)[C@@H]2C[C@H]1[C@@H](Cc1cccc(C[C@H]3c4cc(-c5ccccn5)ncc4[C@H]4C[C@@H]3C4(C)C)c1)c1cc(-c3ccccn3)ncc12`, for which the TGI was greater than 100 µM in the assay with SF-539 CNS; greater than 72.6 µM in the assay with SNB-19 CNS; greater than 49.3 µM in the assay with T-47D breast; greater than 100 µM in the assay with UACC-257 melanoma; greater than 47.6 µM with HCT-116 colon; greater than 65.5 µM in the assay on COLO 205 colon. The TGI is greater than 66.6 µM in the assay on ACHN renal, greater than 60 µM in the assay with EKVX NSCLC, greater than 100 µM with KM12 colon and greater than 100 µM with MDA-MB-435.
In the case of `S=C1NC2=C(COc3ccccc32)C(c2ccc(Cl)cc2)N1` (stereo not given), the TGI in the assay on SF-539 CNS turned out to be 34.9 µM; with SNB-19 CNS, 45.3 µM; with T-47D breast it was 45 µM; in the assay with UACC-257 melanoma, 41.6 µM; in the assay with HCT-116 colon, 28.9 µM; in the assay on COLO 205 colon it was 36.9 µM. For the same compound, the TGI with ACHN renal was found to be 43.6 µM; in the assay on EKVX NSCLC, 34.2 µM; in the assay with KM12 colon it was 32.7 µM; in the assay on MDA-MB-435, 58.2 µM.
Regarding `COC(=O)C1CCN(C(=O)OC(C)(C)C)CC1`, the TGI in the assay with SF-539 CNS, in the assay on SNB-19 CNS, in the assay on T-47D breast, in the assay on UACC-257 melanoma, in the assay with HCT-116 colon and in the assay with COLO 205 colon was greater than 100 µM throughout. Further, the TGI in the assay on ACHN renal, in the assay on EKVX NSCLC, in the assay with KM12 colon and with MDA-MB-435 was greater than 100 µM in each case.
`COc1ccc2c3c(Nc4cccc(/C(C)=N\O)c4)[nH]c4ccccc4c-3c(N=O)c2c1`: the GI50 in the assay on SF-539 CNS is greater than 100 µM; with SNB-19 CNS it was 43.7 µM; in the assay on T-47D breast, 16.9 µM; with UACC-257 melanoma, 41 µM; in the assay on HCT-116 colon it was 14.6 µM; in the assay with COLO 205 colon, 21.3 µM. Also, the GI50 is 33.3 µM in the assay on ACHN renal, 20.5 µM in the assay on EKVX NSCLC, 28.1 µM in the assay with KM12 colon and 30.9 µM with MDA-MB-435. Besides, the total growth inhibition concentration (TGI) in the assay with SF-539 CNS is greater than 100 µM; in the assay with SNB-19 CNS, greater than 100 µM; with T-47D breast, greater than 100 µM; with UACC-257 melanoma it was greater than 100 µM; with HCT-116 colon, 34.2 µM; in the assay on COLO 205 colon, 57.1 µM. For the same compound, the TGI is 91.7 µM with ACHN renal, 93.2 µM with EKVX NSCLC, greater than 100 µM with KM12 colon and greater than 100 µM in the assay on MDA-MB-435.
For the compound `COc1ccc([N+](=O)[O-])c2c(NCCCN(C)C)ccnc12`, the TGI with SF-539 CNS was determined as 17 µM; with SNB-19 CNS, 28.2 µM; in the assay on T-47D breast it was 29 µM; in the assay on UACC-257 melanoma it was 12 µM; in the assay with HCT-116 colon, 22.8 µM; in the assay on COLO 205 colon, 7.17 µM. For the same compound, the TGI with ACHN renal was determined as 14.5 µM; in the assay with EKVX NSCLC, 22.8 µM; in the assay with KM12 colon it was 24.2 µM; in the assay on MDA-MB-435, 23.1 µM.
Regarding `S=C(NCCc1ccccn1)N/N=C/c1ccccn1`, the TGI with SF-539 CNS was 3.59 µM; in the assay on SNB-19 CNS it was greater than 100 µM; in the assay with T-47D breast it was greater than 100 µM; in the assay on UACC-257 melanoma it was 1.77 µM; in the assay on HCT-116 colon, less than 0.01 µM; in the assay with COLO 205 colon, 0.452 µM. Further, the TGI in the assay on ACHN renal was 4.82 µM; in the assay with EKVX NSCLC, greater than 27.7 µM; in the assay with KM12 colon it was greater than 100 µM; in the assay with MDA-MB-435 it was greater than 100 µM.
Take `CC1(C)[C@@H]2CC[C@]1(C)[C@H](OC(=O)/C=C/c1ccccc1)C2`: the TGI in the assay on SF-539 CNS turned out to be 35.9 µM; in the assay with SNB-19 CNS it was 36.3 µM; with T-47D breast, 34.2 µM; in the assay on UACC-257 melanoma, 63.3 µM; in the assay on HCT-116 colon, 38.1 µM; in the assay with COLO 205 colon, 31 µM. For the same compound, the TGI is 31.9 µM in the assay on ACHN renal, 41.8 µM with EKVX NSCLC, 42.6 µM with KM12 colon and 77.7 µM with MDA-MB-435.
In the case of `O=c1c2ccccc2[nH]n1Cc1ccccc1`, the total growth inhibition concentration (TGI) with SF-539 CNS, with SNB-19 CNS, in the assay on T-47D breast, in the assay with UACC-257 melanoma, in the assay with HCT-116 colon and with COLO 205 colon was greater than 100 µM each time. In addition, the TGI in the assay with ACHN renal, with EKVX NSCLC, with KM12 colon and with MDA-MB-435 was greater than 100 µM in each case.

The TGI is the concentration giving total growth inhibition. As a reminder, the GI50 is the concentration giving 50% growth inhibition.
